What all share (assay): Post-emergence herbicidal activity test (stem and leaf spray, pot culture)
Holding throughout (type): in vivo
Holding throughout (details): 3 weeks after spraying

The subject of one experiment is Trifoliumre pensL. In short, it runs like this: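 Pot-grown weeds in loam (pH 7), greenhouse at 20–30 °C, sprayed once post-emergence at the 2–3-leaf stage. Compound in acetone with Tween 80 plus methyl oleate oil (1.5 L/ha), applied at 10, 5 and 2.5 g/mu by spray tower. Effect scored 3 weeks after spraying, averaged over three repeats.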
The subject of another experiment is Portulaca oleracea. In short, it runs like this: (§1)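 Greenhouse pot-grown weeds (loam, pH 7) sprayed post-emergence at 2- to 3-leaf stage with acetone/Tween 80 formulation plus 1.5 liters/ha methyl oleate, at 10, 5 and 2.5 g/mu. Fresh-weight growth control rated 3 weeks later on 0–5 grade scale.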
In the next experiment the test system is Amaranthus retroflexus. The essentials:
as §1

A further experiment concerns Abutilon theophrasti. In short, it runs like this:
as §1

The next experiment concerns Echinochloa crusgalli. The essentials:
as §1

A further experiment relates to Setaria viridis. In short, it runs like this:
as §1

As to `O=C(COc1cc(N2C(=O)C3=C(CCCC3)C2=O)c(F)cc1Cl)c1cccc(F)c1` [Compound C7, 2-(4-chloro-2-fluoro-5-(2-oxo-2-(3-fluorophenyl)ethoxy)phenyl)-4,5,6,7-tetrahydro-1H-isoindole-1,3(2H)-dione], the “Post-emergence herbicidal activity, Trifoliumre pensL. (grade)” value in the experiment on Trifoliumre pensL. (dosage 2.5 g/mu), with Trifoliumre pensL. (dosage 5 g/mu) and in the experiment on Trifoliumre pensL. (dosage 10 g/mu) was 5 (Grade 5: the growth control rate is greater than or equal to 85%) throughout. Besides, the “Post-emergence herbicidal activity, P. oleracea (grade)” value in the experiment with Portulaca oleracea (dosage 2.5 g/mu), with Portulaca oleracea (dosage 5 g/mu) and in the experiment on Portulaca oleracea (dosage 10 g/mu) was 5 (Grade 5: the growth control rate is greater than or equal to 85%) each time. Also, the “Post-emergence herbicidal activity, A. retroflexus (grade)” value with Amaranthus retroflexus (dosage 2.5 g/mu), with Amaranthus retroflexus (dosage 5 g/mu) and in the experiment on Amaranthus retroflexus (dosage 10 g/mu) was 5 (Grade 5: the growth control rate is greater than or equal to 85%) in each case. Besides, the “Post-emergence herbicidal activity, A. theophrasti (grade)” value in the experiment with Abutilon theophrasti (dosage 2.5 g/mu), in the experiment on Abutilon theophrasti (dosage 5 g/mu) and in the experiment on Abutilon theophrasti (dosage 10 g/mu) was 5 (Grade 5: the growth control rate is greater than or equal to 85%) in each case. The “Post-emergence herbicidal activity, E. crusgalli (grade)” value in the experiment with Echinochloa crusgalli (dosage 2.5 g/mu) is 1 (Grade 1: the growth control rate is greater than or equal to 5% and less than 20%); in the experiment with Echinochloa crusgalli (dosage 5 g/mu), 2 (Grade 2: the growth control rate is greater than or equal to 20% and less than 40%); with Echinochloa crusgalli (dosage 10 g/mu) it was 3 (Grade 3: the growth control rate is greater than or equal to 40% and less than 60%). For the same compound, the “Post-emergence herbicidal activity, S. viridis (grade)” value with Setaria viridis (dosage 2.5 g/mu) was 2 (Grade 2: the growth control rate is greater than or equal to 20% and less than 40%); in the experiment on Setaria viridis (dosage 5 g/mu), 3 (Grade 3: the growth control rate is greater than or equal to 40% and less than 60%); in the experiment with Setaria viridis (dosage 10 g/mu) it was 4 (Grade 4: the growth control rate is greater than or equal to 60% and less than 85%).

With `O=C(CCl)Nc1cc(N2C(=O)C3=C(CCCC3)C2=O)c(F)cc1Cl` [Compound D2, 2-chloro-N-(2-chloro-5-(1,3-dioxo-1,3,4,5,6,7-hexahydro-2H-isoindole-2-yl)-4-fluorophenyl)acetamide], in the experiment with Trifoliumre pensL. (dosage 10 g/mu), the “Post-emergence herbicidal activity, Trifoliumre pensL. (grade)” value is 5 (Grade 5: the growth control rate is greater than or equal to 85%). The “Post-emergence herbicidal activity, P. oleracea (grade)” value in the experiment on Portulaca oleracea (dosage 10 g/mu) is on record as 5 (Grade 5: the growth control rate is greater than or equal to 85%). In addition, the “Post-emergence herbicidal activity, A. retroflexus (grade)” value in the experiment with Amaranthus retroflexus (dosage 10 g/mu) is 5 (Grade 5: the growth control rate is greater than or equal to 85%). For the same compound, in the experiment with Abutilon theophrasti (dosage 10 g/mu), the “Post-emergence herbicidal activity, A. theophrasti (grade)” value is listed as 5 (Grade 5: the growth control rate is greater than or equal to 85%). Also, the “Post-emergence herbicidal activity, E. crusgalli (grade)” value in the experiment on Echinochloa crusgalli (dosage 10 g/mu) is 3 (Grade 3: the growth control rate is greater than or equal to 40% and less than 60%). Moreover, the “Post-emergence herbicidal activity, S. viridis (grade)” value with Setaria viridis (dosage 10 g/mu) was 3 (Grade 3: the growth control rate is greater than or equal to 40% and less than 60%).

Take `CC(Br)C(=O)Nc1cc(N2C(=O)C3=C(CCCC3)C2=O)c(F)cc1Cl` (stereo not drawn) [Compound D3, 2-bromo-N-(2-chloro-5-(1,3-dioxo-1,3,4,5,6,7-hexahydro-2H-isoindol-2-yl)-4-fluorophenyl)propionamide]: in the experiment on Trifoliumre pensL. (dosage 10 g/mu), the “Post-emergence herbicidal activity, Trifoliumre pensL. (grade)” value is 5 (Grade 5: the growth control rate is greater than or equal to 85%). Besides, in the experiment on Portulaca oleracea (dosage 10 g/mu), the “Post-emergence herbicidal activity, P. oleracea (grade)” value is reported as 5 (Grade 5: the growth control rate is greater than or equal to 85%). Also, the “Post-emergence herbicidal activity, A. retroflexus (grade)” value in the experiment on Amaranthus retroflexus (dosage 10 g/mu) was 5 (Grade 5: the growth control rate is greater than or equal to 85%). Further, in the experiment on Abutilon theophrasti (dosage 10 g/mu), the “Post-emergence herbicidal activity, A. theophrasti (grade)” value is on record as 5 (Grade 5: the growth control rate is greater than or equal to 85%). In addition, the “Post-emergence herbicidal activity, E. crusgalli (grade)” value in the experiment on Echinochloa crusgalli (dosage 10 g/mu) is 3 (Grade 3: the growth control rate is greater than or equal to 40% and less than 60%). Also, the “Post-emergence herbicidal activity, S. viridis (grade)” value with Setaria viridis (dosage 10 g/mu) was 3 (Grade 3: the growth control rate is greater than or equal to 40% and less than 60%).

For the compound `CC(C)(CCl)C(=O)Nc1cc(N2C(=O)C3=C(CCCC3)C2=O)c(F)cc1Cl` [Compound D4, 3-chloro-N-(2-chloro-5-(1,3-dioxo-1,3,4,5,6,7-hexahydro-2H-isoindole-2-yl)-4-fluorophenyl)-2,2-dimethylpropionamide], the “Post-emergence herbicidal activity, Trifoliumre pensL. (grade)” value with Trifoliumre pensL. (dosage 10 g/mu) is reported as 5 (Grade 5: the growth control rate is greater than or equal to 85%). Also, the “Post-emergence herbicidal activity, P. oleracea (grade)” value in the experiment with Portulaca oleracea (dosage 10 g/mu) is 5 (Grade 5: the growth control rate is greater than or equal to 85%). Besides, the “Post-emergence herbicidal activity, A. retroflexus (grade)” value in the experiment with Amaranthus retroflexus (dosage 10 g/mu) is listed as 5 (Grade 5: the growth control rate is greater than or equal to 85%). The “Post-emergence herbicidal activity, A. theophrasti (grade)” value with Abutilon theophrasti (dosage 10 g/mu) is on record as 5 (Grade 5: the growth control rate is greater than or equal to 85%). Also, in the experiment on Echinochloa crusgalli (dosage 10 g/mu), the “Post-emergence herbicidal activity, E. crusgalli (grade)” value was 3 (Grade 3: the growth control rate is greater than or equal to 40% and less than 60%). Besides, in the experiment with Setaria viridis (dosage 10 g/mu), the “Post-emergence herbicidal activity, S. viridis (grade)” value is 3 (Grade 3: the growth control rate is greater than or equal to 40% and less than 60%).

As for `CCOC(=O)CC(=O)Nc1cc(N2C(=O)C3=C(CCCC3)C2=O)c(F)cc1Cl` [Compound D6, 3-((2-chloro-5-(1,3-dioxo-1,3,4,5,6,7-hexahydro-2H-isoindole-2-yl)-4-fluorophenyl)amino)-ethyl 3-oxopropanoate], the “Post-emergence herbicidal activity, Trifoliumre pensL. (grade)” value in the experiment with Trifoliumre pensL. (dosage 10 g/mu) is 5 (Grade 5: the growth control rate is greater than or equal to 85%). For the same compound, the “Post-emergence herbicidal activity, P. oleracea (grade)” value in the experiment with Portulaca oleracea (dosage 10 g/mu) is 5 (Grade 5: the growth control rate is greater than or equal to 85%). For the same compound, the “Post-emergence herbicidal activity, A. retroflexus (grade)” value in the experiment on Amaranthus retroflexus (dosage 10 g/mu) is 5 (Grade 5: the growth control rate is greater than or equal to 85%). In addition, the “Post-emergence herbicidal activity, A. theophrasti (grade)” value in the experiment with Abutilon theophrasti (dosage 10 g/mu) was 5 (Grade 5: the growth control rate is greater than or equal to 85%). Also, the “Post-emergence herbicidal activity, E. crusgalli (grade)” value in the experiment with Echinochloa crusgalli (dosage 10 g/mu) was 3 (Grade 3: the growth control rate is greater than or equal to 40% and less than 60%). Also, the “Post-emergence herbicidal activity, S. viridis (grade)” value in the experiment with Setaria viridis (dosage 10 g/mu) was 3 (Grade 3: the growth control rate is greater than or equal to 40% and less than 60%).

Consider `CCCCCCCCC(=O)Nc1cc(N2C(=O)C3=C(CCCC3)C2=O)c(F)cc1Cl` [Compound D7, N-(2-chloro-5-(1,3-dioxo-1,3,4,5,6,7-hexahydro-2H-isoindole-2-yl)-4-fluorophenyl)nonanamide], for which, in the experiment with Trifoliumre pensL. (dosage 10 g/mu), the “Post-emergence herbicidal activity, Trifoliumre pensL. (grade)” value was 5 (Grade 5: the growth control rate is greater than or equal to 85%). Further, the “Post-emergence herbicidal activity, P. oleracea (grade)” value with Portulaca oleracea (dosage 10 g/mu) was 5 (Grade 5: the growth control rate is greater than or equal to 85%). Also, the “Post-emergence herbicidal activity, A. retroflexus (grade)” value in the experiment on Amaranthus retroflexus (dosage 10 g/mu) is reported as 5 (Grade 5: the growth control rate is greater than or equal to 85%). Moreover, the “Post-emergence herbicidal activity, A. theophrasti (grade)” value with Abutilon theophrasti (dosage 10 g/mu) is reported as 5 (Grade 5: the growth control rate is greater than or equal to 85%). Also, the “Post-emergence herbicidal activity, E. crusgalli (grade)” value in the experiment on Echinochloa crusgalli (dosage 10 g/mu) is 3 (Grade 3: the growth control rate is greater than or equal to 40% and less than 60%). Besides, the “Post-emergence herbicidal activity, S. viridis (grade)” value in the experiment on Setaria viridis (dosage 10 g/mu) is 4 (Grade 4: the growth control rate is greater than or equal to 60% and less than 85%).
